Measured values taken from patent publication US20230066011A1, “PYRROLOPYRIMIDINE DERIVATIVE, AND PHARMACEUTICAL COMPOSITION FOR PREVENTING OR TREATING PROTEIN KINASE-RELATED DISEASE COMPRISING SAME AS ACTIVE INGREDIENT” (VORONOI CO., LTD., priority 2019, published 2023).

Legend:
[1] = tested on: IL-6; experiment: Inhibition of LPS-induced IL-6 secretion of THP-1 monocytes (ELISA); assay type: cell-based, human; settings: Homo sapiens, THP-1; compound 0.5 μM, LPS 500 ng/mL, 24 hours; read-out: THP1/IL6 (% inhib)
Method in brief: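 THP-1 monocytes grown 16 h at 37 °C, pretreated 1 h with compound at final 0.5 μM, then stimulated with LPS at final 500 ng/mL for 24 h. IL-6 and TNF-α in culture supernatant measured by ELISA (OD 450 nm).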

[2] = target: T1, TTK (Homo sapiens, UniProt P33981); experiment: TTK enzyme inhibition, ADP-Glo kinase assay; assay type: biochemical; design: purchased SignalChem T20-10G; settings: ATP 5 μM
T1 sequence (P33981 1-857): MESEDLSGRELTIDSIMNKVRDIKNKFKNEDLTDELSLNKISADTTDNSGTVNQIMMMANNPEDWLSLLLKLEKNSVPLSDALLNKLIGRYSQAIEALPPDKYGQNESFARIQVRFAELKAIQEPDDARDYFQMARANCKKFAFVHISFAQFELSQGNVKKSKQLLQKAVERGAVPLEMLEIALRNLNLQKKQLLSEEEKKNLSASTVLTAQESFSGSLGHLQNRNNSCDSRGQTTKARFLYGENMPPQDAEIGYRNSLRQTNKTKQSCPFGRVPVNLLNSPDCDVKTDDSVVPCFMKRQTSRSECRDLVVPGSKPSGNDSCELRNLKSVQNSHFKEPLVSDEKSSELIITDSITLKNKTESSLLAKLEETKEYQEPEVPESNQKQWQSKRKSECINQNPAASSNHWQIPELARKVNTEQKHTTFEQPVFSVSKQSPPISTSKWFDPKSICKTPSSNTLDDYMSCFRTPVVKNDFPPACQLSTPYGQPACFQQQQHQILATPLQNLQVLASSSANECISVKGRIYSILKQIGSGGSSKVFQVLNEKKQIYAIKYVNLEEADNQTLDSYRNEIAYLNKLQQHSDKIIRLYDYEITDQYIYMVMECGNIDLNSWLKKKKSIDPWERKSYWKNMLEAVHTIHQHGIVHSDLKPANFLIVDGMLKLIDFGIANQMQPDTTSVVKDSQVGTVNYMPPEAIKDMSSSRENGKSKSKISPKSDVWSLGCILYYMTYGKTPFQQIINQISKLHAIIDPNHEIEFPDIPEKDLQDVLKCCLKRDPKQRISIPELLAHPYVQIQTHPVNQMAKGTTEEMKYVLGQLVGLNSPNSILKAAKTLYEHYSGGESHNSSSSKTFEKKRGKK
Method in brief: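 Purified human TTK (7.5 ng) was reacted with 5 μM ATP and 0.2 μg MBP substrate for 4 h at 25 °C in 40 mM Tris-HCl pH 7.4, 20 mM MgCl2, 0.1 mg/mL BSA, 50 μM DTT. ADP formation was read by ADP-Glo luminescence, and IC50 was taken relative to solvent control.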

[3] = target: T2, human GST-CLK1 (Homo sapiens, UniProt P49759); experiment: GST-CLK1 enzyme inhibition, ADP-Glo kinase assay; assay type: biochemical; settings: ATP 10 μM, GST-CLK1 129-end
T2 construct: purified human GST-CLK1 (129-end, SignalChem) enzyme; purchased SignalChem
Method in brief: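 ADP-Glo luminescence read-out, relative to untreated solvent control, gave IC50 (nM) from triplicate data sets. Reactions ran an hour at 25° C with 3 ng GST-CLK1 (residues 129-end), 10 μM ATP and specific substrate in Tris-HCl pH 7.4 buffer with MgCl2, BSA and DTT.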

T2 sequence (P49759 129-484 limits assumed): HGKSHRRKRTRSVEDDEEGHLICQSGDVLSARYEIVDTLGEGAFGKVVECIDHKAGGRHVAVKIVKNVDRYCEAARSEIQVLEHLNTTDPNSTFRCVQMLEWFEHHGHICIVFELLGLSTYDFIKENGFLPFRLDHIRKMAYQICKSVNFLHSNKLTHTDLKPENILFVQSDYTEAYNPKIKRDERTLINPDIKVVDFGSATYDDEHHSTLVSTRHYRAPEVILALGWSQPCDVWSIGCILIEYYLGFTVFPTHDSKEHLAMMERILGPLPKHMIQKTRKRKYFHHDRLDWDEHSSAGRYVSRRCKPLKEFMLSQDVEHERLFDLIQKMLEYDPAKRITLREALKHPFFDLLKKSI

Molecule `COCCNc1nc(Nc2ccc(C(=O)N3CCN(C4COC4)CC3)c3c2OCCO3)nc2[nH]cc(C(F)(F)F)c12` [Example 403, (8-((4-((2-methoxyethyl)-amino)-5-(trifluoromethyl)-7H-pyrrolo[2,3-d]pyrimidin-2-yl)amino)-2,3-dihydrobenzo[b] [1,4]dioxin-5-yl) (4-(oxetan-3-yl)piperazin-1-yl)methanone] has an inhibition at 0.5 µM [1] of 30.1%, an IC50 [2] of under 100 nM and an IC50 [3] of under 100 nM.

With `C=CCNc1nc(Nc2ccc(S(=O)(=O)N3CCC(N4CCOCC4)CC3)cc2OC)nc2[nH]cc(C#N)c12` [Example 361, 4-(allylamino)-2-((2-methoxy-4-((4-morpholino-piperidin-1-yl)sulfonyl)phenyl)amino)-7H-pyrrolo[2,3-d]pyrimidine-5-carbonitrile] the inhibition at 0.5 µM [1] was 21.7%, the IC50 [2] was under 100 nM and the IC50 [3] was under 100 nM.
